Measurements as given in patent US20110070329A1, “1-tert-Butylcyclohexanecarboxamide and uses thereof as cooling compounds” (priority 2009, published 2011).
Entries after “also recorded” stand apart in the source; their conditions may differ.

How the values were obtained:
[1] = Evaluation of cooler mixed with fondant
From the text: In this example, Structure III was mixed with a fondant, commercially available from Confectionary House, Troy, N.Y., at levels listed in Table 1.

[2] = Chewing gum evaluation by trained descriptive analysis panel; settings: level 0.20%
Procedure: The following gum base formulation was prepared: […]
Structure III by itself at levels detailed in the Table III was blended with the gum base in a Sigma mixer. The resultant chewing gum blend was then manufactured into strips 1 inch in width and 0.1 inches in thickness. These strips were cut into lengths of 3 inches each.
Samples were profiled by a highly trained descriptive analysis panel. The ballot consisted of the following terms: Total impact, total mint, cooling-mouth closed, cooling—breath in, nasal cooling—breathe in, throat irritation, bitterness, tongue irritation, numbing. Each attribute was rated at discrete time points including 1 minute, 3 minutes, 5 minutes, 10 minutes, 20 minutes, and 30 minutes.

[3] = Flavor evaluation, tasted in water at 10 ppm
From the text: After expectorating, cooling began to build over time. The residual cooling (approx. five minutes) after expectorating earned a rating of 4 while when the cooler was in mouth, it was rated a 1 (on a scale of 1 to 9) when tasted in water at 10 ppm.

SMILES | COMMENTS (cooling evaluation in fondant) ([1]; 50 ppm) | COMMENTS (cooling evaluation in fondant) ([1]; 100 ppm) | Time and Evaluation (chewing gum) ([2]; 0-1 minute) | Time and Evaluation (chewing gum) ([2]; 1-3 minutes) | Time and Evaluation (chewing gum) ([2]; 3-5 minutes) | Time and Evaluation (chewing gum) ([2]; 5-10 minutes) | Time and Evaluation (chewing gum) ([2]; 10-20 minutes) | Time and Evaluation (chewing gum) ([2]; 20-30 minutes) | flavor properties when tasted in water [3] | residual cooling rating after expectorating ([3]; approx. five minutes after expectorating, scale of 1 to 9) | cooling rating when the cooler was in mouth ([3]; in mouth, scale of 1 to 9)
CC(C)(C)C1(C(=O)NCc2ccccn2)CCCCC1 [Structure III, 1-tert-butyl-N-[(pyridine-2-yl)methyl]cyclohexanecarboxamide] | Slight cooling but quick onset, fills mouth | Quick onset slight bitterness perceived | Sweet, citrus. Not cooling slightly bitter | Cooling is perceivable, but weak. | bitterness., cooling very weak; also recorded: More cooling. Cooling when breathing. Little | Cooling is all over the mouth. Some bitterness; also recorded: is perceivable, very slight cooling again very; also recorded: weak | Cooling is all over the mouth but not very; also recorded: intensive., little to no cooling | More bitterness is perceivable. Cooling is; also recorded: moderate and slowly starting to decline; also recorded: little to no cooling | did not have much cooling except on breath-in. After expectorating, cooling began to build over time | 4 | 1
CC(C)(C)C1(C(=O)Nc2ccc(CC#N)cc2)CCCCC1 [Structure I, 1-tert-butyl-N-[4-(cyanomethyl)phenyl]cyclohexanecarboxamide] | – | – | – | – | – | – | – | – | bitter upfront, intense cooling upon expectorating | – | –
CC(C)(C)C1(C(=O)NCCc2ccccn2)CCCCC1 [Structure II, 1-tert-butyl-N-[2-(pyridine-2-yl)ethyl]cyclohexanecarboxamide] | – | – | – | – | – | – | – | – | honey, cream soda, slightly bitter, cooling flavor properties after about thirty seconds | – | –
